Laboratory results taken from patent US20050106258A1, “Pharmacology and manufacturing method of Bombyx moriL related bioproduct” (priority 2003, published 2005).
Structures can show the parent of a compound that is named as a salt.

Columns and labels:
cGMP [1] = experiment: cGMP content in rat plasma (125I-cGMP RIA); format: in vivo, rats; details: 1.5 hours after administration, P < 0.001 vs control (2.59 ± 0.48)
Experimental: (§1) According to the aim of the experiment, IRA was performed to estimate cGMP content in plasma and cavernous boby of 50 male rats which were administrated by 2 dosages of […] product mainly consisting of bombyx moriL in our ladoratory. Change caused by […] product mainly consisting of bombyx moriL at 1.5 hours after administration was wholly observed. I. Rats: 50 healthy rats were randomly divided into 5 groups, every group is 10 rats 1. Product Mainly Consisting of Bombyx moriL Group: there were two dosage group 200 mg/kg, 400 mg/kg. 2. Viagra Group: two group, 6 mg/kg, 12 mg/kg. 3. Control Group: NS, 0.4 ML/rat. Medicine Dispensing: Viagra and Product Mainly Consisting of Bombyx moriL was dissolved by certain mount of NS. Administration Method: All Group was e.g. for One Time. Anticoagulant 50 u l EDTA was added into blood test tube.lml blood was taken in rat's veniplex orbita posterior. Test tubes was stood in ice-water mixture and were centrifugated 200 rpm for 10 minutes. […] Our laboratory used 125I-cGMP-RIA kit by Isotope Laboratory, detecting Method was double antiboby radioimmune method. The experiment sensitivity is 0.008 pmol/ml, most combination rate of detection is 82.7%,non […] combination rate is 5.0%.

[2] = test system: 5′ Nucleotide Phosphodiesterase isoenzyme (isoenzyme V) in corpus cavernosum tissue; experiment: 5′ Nucleotide Phosphodiesterase isoenzyme bands in rat corpus cavernosum tissue after oral dosing (polyacrylamide gel electrophoresis, laser scanning); format: in vivo, rats; details: P < 0.05 vs blank comparison (0.495 ± 0.328)
Experimental: Take 50 healthy male rats with body weight of 230±10.4 g, divide them into five groups at random, with 10 rats each group.
(1) The product mainly consisting of bombyx moriL test drug group: 200mg/kg and 400mg/kg two dose groups
(2) The positive comparison drug viagra group: 6 mg/kg and 12 mg/kg two dose groups
(3) The blank comparison group: normal saline 0.4 ml/per animal
Preparation of drug: After product mainly consisting of bombyx moriL and viagra are dissolved with quanitative normal saline, then use them.
Drug feeding way: Feed medicine to all groups of animal once.
Take corpus cavernosum 10 mg, put into the tissue lapping homogenate container, add 0.05M PH7.4 phosphoric acid buffering agent liquid of 0.2 ml homogenate into the ice bath, and lastly add to 10 ml to prepare homogenate liquid with concentration of 1 mg/n ml. Centrifuge by 20 min. at temperature 4° C., 3000 r/min, then take the supernatant liquid for use.
(1) Take 5′ Nucleotide Phosphodiesterase in the amount enough to dissolve phosphoric acid dieter bond by water, under the effecting of the bottom substance of 5′-[5-iodine indoxyl-(3)] thymidine acid ammonium salt, get iodine sub-indoxyl, it can be oxidized in air and generating violet 5.5′,by using -diuodoindigo principle to examine enzyme activity. […]

normal males [3] = experiment: Arterial blood flow rate of corpus cavernosum penis of normal males (Doppler color ultrasound); format: in vivo; details: for MAX blood flow rate, change 1 h after administration, X ± SD: P < 0.001; for increasement of MAX (cavernous arterial maximal blood flow rate): 1 hour after administration vs before
Text: AIM: The physiological mechanism of penile erection expresses that NO is excreted in the cavernosum during sexual extraction, whose direct function is to activate GC, which catalyzes GPT to cGMP, so the smooth muscle of cavernosum is relax, and the inflowed blood volume is increased, then penis is erected. In this experiment, Doppler color-ultrasound instrument was used to observe the influence of product mainly consisting of bombyx moriL and viagra on the arterial blood flow rate of corpus cavernosum penis of normal males, to estimate the alternation of inflowed blood volume of cavernosum.
Tested Medicie: No.981005, light-blue capsule, 200 mg/capsule.
Sildenafilcitrate, viagra: light-blue rhombic table, 100 mg/tablet. The tablet was triturated to fine powder, and amylum was added. After adequate mixture, the powder was filled into 200 mg capsule. (The same specification as product mainly consisting of bombyx moriL).There was 50 mg sildenafilcitrate in every 8 capsules.
(§2) Subjects: 46 normal males, age 23-29, provided.
(§3) Methods: Double-blind, auto-control and mutual control design. The influence of the two medicines on arterial blood flow rate of cavernosum was contrasted, Based on ages, the objects were randonmly divided into 4 groups, and there were 11-12 people in one group. Before administration, arterial blood flow of corpus cavernosum penis was estimated respectively by Doppler color ultrasound instrument (Acuson, American, 128×p/10 c),and blood pressure was also measured. Then 2 groups were respectively given high dosage Medicine, that is, 8 capsules product mainly consisting of bombyx moriL and 8 capsules of viagra, and the dose-effect relationship was observed. Blood pressure and cavernous arterial blood flow of every group were estimated respectively at I and 2 hours after administration, and the time-effect relationship of product mainly consisting of bombyx moriL and viagra was observed. Whether the alternation before and after administration and the difference between groups were significant was convinced here.

nitric oxide (NO) = experiment: Nitric oxide contents in the corpora cavernosa of penis in male rats (nitrate reductase method); format: in vivo
Text: It has been approved in literatures that nitric oxide (NO) is formed in the endothelial cells in blood vessels and NO plays as an important signal transmitter in many physical activities of the human body. Nitric Oxide exists in many organs and tissues such as brain, blood vessels, liver, lung, pancreas, immune and reproductive systems. On the basis of No on wide-ranging regulative activities in the human physiological process, the Nitric Oxide contents, in the Sera and the Corpora Cavernosa of Penis in 50 normal male rats, were measured by nitrate reductase method for two dosages of product mainly consisting of bombyx moriL and Sildenafil Citrate(Viagra).On a half and one hour after the drug administrations, the variations of NO content were compared with the two drugs treated animals as a whole situation. The results are: (1) In the rat serum of the tested drug groups, there are distinct NO content differences with statistical […] compared the No contents of the low dosage groups of the two drugs with the control group's, and there are very distinct NO content differences with statistical significance (p<0.001) in the high dosage groups of the two drugs. […]

cGMP [4] = experiment: cGMP content in rat cavernous body (125I-cGMP RIA); format: in vivo, rats; details: 1.5 hours after administration
Experimental: as §1, with “Time.” for “Time. Anticoagulant 50 u l EDTA was added into blood test tube.lml blood was taken in rat's veniplex orbita posterior. Test tubes was stood in ice-water mixture and were centrifugated 200 rpm for 10 minutes.”

normal males [5] = experiment: Blood pressure of normal males; format: in vivo; details: for Systolic Pressure, change 1 h after administration, X ± SD: P < 0.01
Text: as §2, §3

[6] = Viagra 25 mg, n=11, before administration 1.09 ± 0.30
[7] = Viagra 25 mg, n=11, before administration 3.24 ± 1.02
[8] = Viagra 50 mg, n=12, before administration 1.25 ± 0.62
[9] = Viagra 50 mg, n=12, before administration 3.37 ± 0.79
[10] = Viagra 25 mg, n=11, before administration 81.8 ± 6.4
[11] = Viagra 25 mg, n=11, before administration 120.5 ± 10.6
[12] = Viagra 50 mg, n=12, before administration 78.6 ± 10.7
[13] = Viagra 50 mg, n=12, before administration 117.7 ± 9.8

Structure (SMILES): CCCc1nn(C)c2c(=O)[nH]c(-c3cc(S(=O)(=O)N4CCN(C)CC4)ccc3OCC)nc12 [Viagra, Sildenafil citrate]
- cGMP content in plasma, X ± SD (cGMP [1]; Viagra 6 mg/kg): 4.53 ± 0.67 pmol/mL
- cGMP content in plasma, X ± SD (cGMP [1]; Viagra 12 mg/kg): 4.42 ± 0.97 pmol/mL
- isoenzyme band II area under peak, Peak Area X ± SD ([2]; Viagra 6 mg/kg): 0.249 ± 0.126
- isoenzyme band II area under peak, Peak Area X ± SD ([2]; Viagra 12 mg/kg): 0.198 ± 0.092
- MIN blood flow rate, change 1 h after administration, X ± SD (normal males [3]; [6]): +0.27 ± 1.01 cm/s
- MIN blood flow rate, change 2 h after administration, X ± SD (normal males [3]; [6]): +0.36 ± 0.81 cm/s
- TAMX blood flow rate, change 2 h after administration, X ± SD (normal males [3]; Viagra 25 mg, n=11, before administration 2.64 ± 1.12): 0.18 ± 1.17 cm/s
- TAMX blood flow rate, change 1 h after administration, X ± SD (normal males [3]; Viagra 25 mg, n=11, before administration 2.64 ± 1.12, P < 0.05): +1.36 ± 1.43 cm/s
- PI (pulsation index), change 1 h after administration, X ± SD (normal males [3]; [7]): −0.19 ± 1.16
- PI (pulsation index), change 2 h after administration, X ± SD (normal males [3]; [7]): +0.10 ± 0.85
- MAX blood flow rate, change 1 h after administration, X ± SD (normal males [3]; Viagra 25 mg, n=11, before administration 9.55 ± 2.58): +4.36 ± 2.98 cm/s
- MIN blood flow rate, change 1 h after administration, X ± SD (normal males [3]; [8]): +0.17 ± 0.72 cm/s
- MIN blood flow rate, change 2 h after administration, X ± SD (normal males [3]; [8]): +0.17 ± 0.91 cm/s
- TAMX blood flow rate, change 2 h after administration, X ± SD (normal males [3]; Viagra 50 mg, n=12, before administration 2.67 ± 0.78): 0.50 ± 0.80 cm/s
- TAMX blood flow rate, change 1 h after administration, X ± SD (normal males [3]; Viagra 50 mg, n=12, before administration 2.67 ± 0.78, P < 0.01): +1.43 ± 1.27 cm/s
- PI (pulsation index), change 1 h after administration, X ± SD (normal males [3]; [9]): +0.24 ± 0.84
- PI (pulsation index), change 2 h after administration, X ± SD (normal males [3]; [9]): −0.33 ± 0.72
- MAX blood flow rate, change 1 h after administration, X ± SD (normal males [3]; Viagra 50 mg, n=12, before administration 9.58 ± 1.08): +5.67 ± 4.31 cm/s
- MAX blood flow rate, change 2 h after administration, X ± SD (normal males [3]; Viagra 50 mg, n=12, before administration 9.58 ± 1.08, P < 0.05): +1.75 ± 2.63 cm/s
- increasement of MAX (cavernous arterial maximal blood flow rate) (normal males [3]; high dosage groups): 59.2%
- increasing rate of TAMX (cavernous average blood flow rate) (normal males [3]; low and high dosage groups, 1 hour after administration, P<0.01): 51.5-53.6%
- increasement of MAX (cavernous arterial maximal blood flow rate) (normal males [3]; low dosage groups): 46.6%
- NO contents X ± SD, corpora cavernosa (nitric oxide (NO); Viagra high 12 mg/kg, P < 0.05 vs negative control (29.2 ± 5.37)): 48.52 ± 17.95 µmol/L
- NO contents X ± SD, corpora cavernosa (nitric oxide (NO); Viagra low 6 mg/kg, P < 0.01 vs negative control (29.2 ± 5.37)): 44.88 ± 9.47 µmol/L
- cGMP content in cavernous body, X ± SD (cGMP [4]; Viagra 6 mg/kg, P < 0.1 vs control (0.25 ± 0.05)): 0.40 ± 0.26 pmol/mL
- cGMP content in cavernous body, X ± SD (cGMP [4]; Viagra 12 mg/kg, P < 0.001 vs control (0.25 ± 0.05)): 0.53 ± 0.12 pmol/mL
- rate of hypotensive function (normal males [5]; "High dosage" as printed, remarkable only at 1 hour after administration): 8.3%
- Diastolic Pressure, change 1 h after administration, X ± SD (normal males [5]; [10]): −2.7 ± 4.7 mmHg
- Diastolic Pressure, change 2 h after administration, X ± SD (normal males [5]; [10]): −1.8 ± 4.6 mmHg
- Systolic Pressure, change 2 h after administration, X ± SD (normal males [5]; [11]): −3.5 ± 6.2 mmHg
- Systolic Pressure, change 1 h after administration, X ± SD (normal males [5]; [11]): −10.0 ± 6.3 mmHg
- Diastolic Pressure, change 1 h after administration, X ± SD (normal males [5]; [12]): −3.4 ± 7.2 mmHg
- Diastolic Pressure, change 2 h after administration, X ± SD (normal males [5]; [12]): −2.0 ± 6.4 mmHg
- Systolic Pressure, change 2 h after administration, X ± SD (normal males [5]; [13]): −2.7 ± 5.6 mmHg
- Systolic Pressure, change 1 h after administration, X ± SD (normal males [5]; [13]): −7.3 ± 6.1 mmHg
- decreasing rate of systolic pressure (sp) (normal males [5]; high dosage, 1 h after administration, p<0.01): 6.2%
